The test system of series [1] is p-388 leukemia cells. As to the kind of experiment: Test Example 1: antitumour activity, intraperitoneal-intraperitoneal, p-388 leukemia in BDF1 mice. It is filed as in vivo. Conditions: i.p., one day and four days after i.p. inoculation, 30 days observation. The method, then:
(Intraperitoneal-intraperitoneal) To BDF1 mice, p-388 leukemia cells were intraperitoneally inoculated in an amount of 1×10^6 cells/mouse. A test drug was intraperitoneally administered twice, i.e. one day and four days after the inoculation. […] The ratio (%) of median survival time of test and control animals was obtained with the number of survival days of mice of the control group to which a physiological saline was administered, being evaluated as 100. The comparative drugs were dispersions obtained by adding small amounts of surfactants (e.g. Tween-80) to the comparative compounds. The drugs of the present invention were those prepared in accordance with Formulation Example 4 given hereinafter. | Note: MST^1 Ratio of median survival time of test and control animals

Series [2] has as its system p-388 leukemia cells. As to the kind of experiment: Test Example 2: antitumour activity, intraperitoneal-oral, p-388 leukemia in BDF1 mice. It is filed as in vivo. The conditions noted are these: one day and four days after i.p. inoculation, 30 days observation. The text has this: (intraperitoneal-oral) To BDF1 mice, p-388 leukemia cells were intraperitoneally inoculated in an amount of 1×10^6 cells/mouse. A test drug was orally administered twice i.e. one day and four days after the inoculation. […] The test drugs and comparative drugs were formulated in accordance with Formulation Example 4 given hereinafter. | Notes: MST^1 is as defined above.

Series [3] in a line: Acute toxicity, oral administration. It is filed as in vivo. The conditions noted are these: mouse, in vivo; oral, ddY mice, Formulation Example 4. The protocol: (§1) To ddY mice (10 animals), a drug containing the Compound No. 1 or No. 2 of the present invention formulated in accordance with Formulation Example 4 was orally administered in an amount of the compound of 12.5 mg/kg, whereupon no mice died.

A further series has as its system ddY mice. As to the kind of experiment: Acute toxicity, oral administration. It is filed as in vivo. The conditions noted are these: 12.5 mg/kg oral, ddY mice (10 animals), Formulation Example 4. The method, then: as §1
Series [4] in a line: Acute toxicity, intraperitoneal administration. Conditions: mouse, in vivo, ip, ddY mice, suspension with Tween-80. The method, then:
as §1
On the other hand, a similar test was conducted by intraperitoneally administering a suspension obtained by adding a small amount of a surfactant (Tween-80) to the Compound No. 3 of the present invention, to the same mice, whereby the LD50 values were from 50 to 100 mg/kg.

In general, LD50 refers to the dose expected to kill half of the subjects tested.

`O=C(NC(=O)c1ccccc1Cl)Nc1ccc(Oc2ncc(Cl)cn2)c(Cl)c1` [Comparative Compound No. 2, N-(2-chlorobenzoyl)-N'-[3-chloro-4-(5-chloro-2-pyrimidinyloxy)phenyl]urea]: the “T/C (%) of MST (ratio of median survival time of test and control animals)” value in the series on p-388 leukemia cells [1] (200 mg/kg/day) worked out at 183.9%.
As to `O=C(NC(=O)c1ccccc1[N+](=O)[O-])Nc1ccc(Oc2ncc(I)cn2)c(Cl)c1` [Comparative Compound No. 1, N-(2 nitrobenzoyl)-N'-[3-chloro-4-(5-iodo-2-pyrimidinyloxy)phenyl]urea], the “T/C (%) of MST (ratio of median survival time of test and control animals)” value in the series on p-388 leukemia cells [1] (12.5 mg/kg/day) was found to be 171%; in the series with p-388 leukemia cells [1] (25 mg/kg/day), 230%; in the series on p-388 leukemia cells [2] (400 mg/kg/day) it was 116%; in the series with p-388 leukemia cells [2] (800 mg/kg/day), 143%; in the series with p-388 leukemia cells [2] (1600 mg/kg/day), 186%.
Turning to `O=C(NC(=O)c1ccccc1Cl)Nc1ccc(Oc2ncc(I)cn2)c(Cl)c1` [Comparative Compound No. 3, N-(2-chlorobenzoyl)-N'-[3-chloro-4-(5-iodo-2-pyrimidinyloxy)phenyl]urea], the “T/C (%) of MST (ratio of median survival time of test and control animals)” value in the series with p-388 leukemia cells [1] (100 mg/kg/day) is 236.8%.
`O=C(NC(=O)c1ccccc1[N+](=O)[O-])Nc1ccc(Oc2ncc(Br)cn2)c(C(F)(F)F)c1` [Compound No. 1, N-(N2-nitrobenzoyl)-N'-[4-(5-bromo-2-pyrimidinyloxy)-3-trifluoromethylphenyl]urea]: the “T/C (%) of MST (ratio of median survival time of test and control animals)” value with p-388 leukemia cells [1] (3.125 mg/kg/day) turned out to be 153%; in the series with p-388 leukemia cells [2] (6.25 mg/kg/day), 186%. In series [3], this compound showed an LD50 of at least 12.5 mg/kg. For the same compound, the mortality entry in the series with ddY mice was “no mice died”.
In the case of `O=C(NC(=O)c1ccccc1[N+](=O)[O-])Nc1ccc(Oc2ncc(I)cn2)c(C(F)(F)F)c1` [Compound No. 3, N-(2-nitrobenzoyl)-N'-[4-(5-iodo-2-pyrimidinyloxy)-3-trifluoromethylphenyl]urea], the LD50 in series [4] lay in the range of 50 to 100 mg/kg.
Turning to `O=C(NC(=O)c1ccccc1[N+](=O)[O-])Nc1ccc(Oc2ncc(Cl)cn2)c(C(F)(F)F)c1` [Compound No. 2, N-(2-nitrobenzoyl)-N'-[4-(5-chloro2-pyrimidinyloxy)-3-trifluoromethylphenyl]urea], the results for the “T/C (%) of MST (ratio of median survival time of test and control animals)” value with p-388 leukemia cells [1] (3.125 mg/kg/day) and in the series on p-388 leukemia cells [2] (6.25 mg/kg/day) were 160% and 167%, respectively. This compound had an LD50 in series [3] of at least 12.5 mg/kg. Further, the mortality result in the series with ddY mice is “no mice died”.
For the compound `O=C(NC(=O)c1ccccc1Br)Nc1ccc(Oc2ncc(I)cn2)c(Cl)c1` [Comparative Compound No. 4, N-(2-bromobenzoyl)-N'-[3-chloro-4-(5-iodo-2-pyrimidinyloxy)phenyl]urea], in the series on p-388 leukemia cells [1] (100 mg/kg/day), the “T/C (%) of MST (ratio of median survival time of test and control animals)” value was found to be 165%.

The record behind these values is patent US4677110A, “N-benzoyl-N'-pyrimidinyloxyphenyl urea compounds, and antitumorous compositions containing them” (Ishihara Sangyo Kaisha Ltd., priority 1984, dated 1987).
